In patent EP0090510A2, “O-carbamoyl salicylates and their preparation” (Council of Scientific and Industrial Research, priority 1983, dated 1983):

What was measured:
Format in all cases: in vivo
Settings in all cases: Dose : 200 mg/kg
[1] = Analgesic protection, writhing test; parameters: unit not given here
[2] = Anti-inflammatory, edema test
[3] = Anti-inflammatory, granuloma test

For NC(=O)Oc1ccccc1C(=O)Oc1ccc(Cl)cc1 [compound 6], the “Analgesic protection Writhing” value [1] was 83.00, the “Anti-inflammatory %Inhibition Raw edema” value [2] was 37.88% and the “Anti-inflammatory %Inhibition Granuloma” value [3] was 41.45%.

With NC(=O)Oc1ccccc1C(=O)Oc1ccccc1 [compound 4] the “Analgesic protection Writhing” value [1] was 72.00, the “Anti-inflammatory %Inhibition Raw edema” value [2] was 93.19% and the “Anti-inflammatory %Inhibition Granuloma” value [3] was 57.65%.

For “O-Carbamoyl (3-pentadecylphenyl) salicylate [Sl. No. 10]”, the “Analgesic protection Writhing” value [1] was 67.00, the “Anti-inflammatory %Inhibition Raw edema” value [2] was 34.85% and the “Anti-inflammatory %Inhibition Granuloma” value [3] was 19.79%.

For NC(=O)Oc1ccccc1C(=O)Oc1ccccc1Cl [compound 5], the “Analgesic protection Writhing” value [1] was 70.00, the “Anti-inflammatory %Inhibition Raw edema” value [2] was 35.00% and the “Anti-inflammatory %Inhibition Granuloma” value [3] was 35.06%.

With CCCCCCCCCCCCCCCc1cccc(OC(=O)c2ccccc2OC(N)=O)c1 [compound 10] the “Analgesic protection Writhing” value [1] was 45.00, the “Anti-inflammatory %Inhibition Raw edema” value [2] was 12.10% and the “Anti-inflammatory %Inhibition Granuloma” value [3] was 33.55%.

With Cc1cccc(OC(=O)c2ccccc2OC(N)=O)c1 [compound 8] the “Analgesic protection Writhing” value [1] was 84.00, the “Anti-inflammatory %Inhibition Raw edema” value [2] was 48.50% and the “Anti-inflammatory %Inhibition Granuloma” value [3] was 33.25%.

In the case of “O-Carbamoyl phenylsalicylate [Sl. No. 4]”, the “Analgesic protection Writhing” value [1] is reported as 95.00, the “Anti-inflammatory %Inhibition Raw edema” value [2] is reported as 34.86% and the “Anti-inflammatory %Inhibition Granuloma” value [3] is reported as 28.63%.

In the case of NC(=O)Oc1ccccc1C(=O)Oc1ccc(Cl)cc1Cl [compound 7], the “Analgesic protection Writhing” value [1] is reported as 76.00, the “Anti-inflammatory %Inhibition Raw edema” value [2] is reported as 28.77% and the “Anti-inflammatory %Inhibition Granuloma” value [3] is reported as 34.40%.

With O-Carbamoyl ethylsalicylate [Sl. No. 2] the “Analgesic protection Writhing” value [1] was 69.78, the “Anti-inflammatory %Inhibition Raw edema” value [2] was 76.23% and the “Anti-inflammatory %Inhibition Granuloma” value [3] was 46.32%.

With Cc1cc(OC(=O)c2ccccc2OC(N)=O)ccc1Cl [compound 9] the “Analgesic protection Writhing” value [1] was 68.00, the “Anti-inflammatory %Inhibition Raw edema” value [2] was 28.90% and the “Anti-inflammatory %Inhibition Granuloma” value [3] was 24.04%.
